Square brackets hold non-standard residues; d marks the D form. Peptide text beside a SMILES is read from it. pS = N[C@@H](COP(=O)(O)O)C(=O)O
Columns and labels:
[1] = target: T1, Synthetic TMEM97 (108-176) (Homo sapiens, UniProt Q5BJF2); assay: Surface plasmon resonance, immobilized synthetic TMEM97 (108-176); type: binding; settings: SPR
T1 construct: Three peptides, TMEM97 (108-176), TMEM97 (108-143) and TMEM97 (144-176), were synthesized; made in house; host or cells: chemical solid-phase synthesis (Fmoc, Wang resin)
Procedure: (§1) Surface Plasmon Resonance (SPR). Recombinant full-length TMEM97 (also called MAC30, from HEK293 cells) and GST-TMEM97 (108-176, recombinant GST-C terminal from wheat germ) proteins were purchased from OriGene (Rockville, Md.) and Abnova (Taipei City, Taiwan), respectively. Three peptides, TMEM97 (108-176), TMEM97 (108-143) and TMEM97 (144-176), were synthesized. All proteins and peptides were initially prepared in HBS buffer containing 10 mM HEPES, pH 7.4, 150 mM NaCl, and 0.05% surfactant P20. The CM5 sensor surface was first activated by 1-ethyl-3-(3-dimethylaminopropyl) carbodiimide hydrochloride (EDC)/N-hydroxy succinimide (NHS) mixture using a Biacore T200 or Biacore 8K instrument (GE Healthcare). […] Flow channels 1 and 3 were used as references.
(§2) The three synthesized peptides were diluted to 50 μg/mL in 10 mM sodium acetate at pH 4.0 and immobilized to flow channels 2, 3 and 4, respectively, on another sensor chip. The unmodified surfaces on a flow channel 1 were used as a reference control. Histatin solutions with a series of increasing concentrations (0.78-25 μM at 2-fold dilution) were applied to all four channels at a 30 μL/minute flow rate at 25° C. The data were double-referenced with reference channel and zero concentration responses, and reference subtracted sensorgrams were fitted with 1 to 1 Langmuir kinetic model using a Biacore T200 evaluation software V3.0 or Insight evaluation software. The equilibrium dissociation constants ([…]) were determined from two rate constants (KD=kd/ka).
(§3) To determine more precisely which segment of TMEM97 is necessary for binding of Hst1, multiple synthetic fragments of TMEM97 were generated (Table 6) and binding to Hst1 was tested using SPR. […] Smaller fragments of the C-terminal of TMEM97 were then constructed to represent the (predicted) luminal (108-143) and cytoplasmic (144-176) exposed segments of the C-terminus of TMEM97 based on modeling experiments previously described. […] SPR results for Hst1 were confirmed using ITC as an orthogonal analytical method.
(§4) To determine the region(s) of Hst1 that mediate binding to TMEM97, SPR testing was performed with various Hst1 fragments and either recombinant TMEM97 (GST-tagged, wheat-germ derived, C-terminal fragment TMEM97 (108-176)) or synthesized TMEM97 (TMEM97 (108-176), TMEM97 (108-143) and TMEM97 (144-176)).

[2] = system: Synthetic TMEM97 (144-176); assay: Surface plasmon resonance, immobilized synthetic TMEM97 (144-176); type: binding; settings: mutations E170A, E171A and E170A/E171A of TMEM97 (144-176)
Procedure: as §1, §2, §3, §4

[3] = target: T2, TMEM97 (108-176) (Homo sapiens, UniProt Q5BJF2); assay: Isothermal titration calorimetry, TMEM97 (108-176); type: binding; settings: ITC
T2 construct: Three peptides, TMEM97 (108-176), TMEM97 (108-143) and TMEM97 (144-176), were synthesized; made in house; host or cells: chemical solid-phase synthesis (Fmoc, Wang resin)
Procedure: Isothermal Titration Calorimetry (ITC). The three synthesized peptides, TMEM97 (108-176), TMEM97 (108-143) and TMEM97 (144-176) were prepared in ITC buffer (10 mM Tris, pH 7.4, 150 mM NaCl, 0.05% polysorbate 20) at 40 μM concentration and placed in the sample cell. All ITC experiments were performed while stirring at 395 rpm, in ITC buffer at 25° C. using a VP-ITC titration microcalorimeter from MicroCal™, LLC (Northampton, Mass.). The microsyringe was loaded with a Histatin 1 solution (500 μM in ITC buffer). All titrations were conducted using an initial injection of 2.5 μL followed by 35 identical injections of 5 μL with a duration of 16 seconds (per injection) and a spacing of 210 seconds between injections. The buffer control titration (Histatin 1 into buffer) signals were subtracted from the experimental data. The collected data were evaluated using NITPIC (NIH), SEDPHAT (NIH), and GUSSI (NIH).
To determine more precisely which segment of TMEM97 is necessary for binding of Hst1, multiple synthetic fragments of TMEM97 were generated (Table 6) and binding to Hst1 was tested using SPR. […] Smaller fragments of the C-terminal of TMEM97 were then constructed to represent the (predicted) luminal (108-143) and cytoplasmic (144-176) exposed segments of the C-terminus of TMEM97 based on modeling experiments previously described. […]

[4] = Circular dichroism secondary structure analysis (DichroWeb); type: physicochemical
Procedure: Circular Dichroism (CD). CD analysis was performed on a Jasco 815 CD spectrometer at room temperature. TMEM97 (108-176) and Hst1 full-length peptides were prepared as 10 mM stock in 25% DMSO and water, respectively, and diluted to 0.15 mg/mL final concentration in 10 mM […] buffer. A total of 400 μL of each sample was added into a 1 mm quartz sample cell, and CD spectra were recorded from 260 nm to 190 nm wavelength. Data points were measure in 0.5 nm wavelength step at a scanning speed of 100 nm/minute. A total of five spectra were acquired for each sample and averaged. […] buffer without peptide was used as a control curve, which was subsequently subtracted from the CD spectra of peptide samples. The resulting buffer control subtracted CD intensity row data in millidegrees were submitted to DichroWeb and fitted with multiple embedded models and converted to mean residue ellipticity.
Subsequently, the hypothesis that interaction between Hst1 and TMEM97 could affect the structure of each protein was tested. Also, the secondary structure of Hst1 and TMEM97 was tested in solution using CD measurements. It was noted that Hst1 alone is mostly disordered (over 50%) with some degree of β-strand, while TMEM97 (108-176) contains some α-helical and β-strand regions with ˜34% disordered regions. According to CD spectra comparison, there seemed to be more secondary structures formed upon Hst1 binding to TMEM97 (108-176).

[5] = system: NPC1 patient fibroblasts; assay: Gene expression in NPC1 patient fibroblasts; type: cell-based, human
[6] = system: NPC knockout fibroblasts (NPC1−/−); assay: Filipin and LAMP1 staining in NPC knockout fibroblasts; type: cell-based, human
Procedure: In addition, cholesterol accumulation in wild type human skin fibroblasts or NPC knockout fibroblasts (NPC1^−/−) were evaluated with or without Hst1 treatment. […] Additionally, LAMP1 lysosomal marker accumulation in untreated NPC1^−/− cells were normalized with Hst1 treatment.

[7] = system: mouse cerebellar tissue (NPC mouse model); assay: Lipid levels in Hst1-treated NPC mouse cerebellar tissue
From the text: In this respect, in addition to reducing the accumulation of cholesterol in liver tissue, histatin peptides may also be used to alter fatty acid and cholesterol metabolism in neuronal tissue thereby reducing changes associated with neurodegeneration.

[8] = CD, fraction of secondary structure

T1 sequence (Q5BJF2 108-176): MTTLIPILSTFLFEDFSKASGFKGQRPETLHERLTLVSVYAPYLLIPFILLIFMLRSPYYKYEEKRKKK
T2 sequence (Q5BJF2 108-176): as above

With `CC(C)C[C@H](NC(=O)[C@H](Cc1ccc(O)cc1)NC(=O)[C@H](CC(N)=O)NC(=O)[C@H](CO)NC(=O)CNC(=O)[C@H](Cc1ccc(O)cc1)NC(=O)[C@H](CC(=O)O)NC(=O)CNC(=O)[C@H](Cc1ccc(O)cc1)NC(=O)[C@H](Cc1ccccc1)NC(=O)[C@@H]1CCCN1C(=O)[C@H](Cc1ccccc1)NC(=O)[C@H](CCC(=O)O)NC(=O)[C@H](CCCNC(=N)N)NC(=O)[C@H](Cc1c[nH]cn1)NC(=O)[C@H](CO)NC(=O)[C@H](Cc1c[nH]cn1)NC(=O)[C@H](Cc1c[nH]cn1)NC(=O)[C@H](CCCCN)NC(=O)[C@H](CCC(=O)O)NC(=O)[C@H](Cc1c[nH]cn1)NC(=O)[C@H](Cc1ccccc1)NC(=O)[C@H](CCCCN)NC(=O)[C@H](CCCNC(=N)N)NC(=O)[C@H](CCCNC(=N)N)NC(=O)[C@H](Cc1ccc(O)cc1)NC(=O)CNC(=O)[C@H](Cc1c[nH]cn1)NC(=O)[C@H](Cc1c[nH]cn1)NC(=O)[C@H](CCCNC(=N)N)NC(=O)[C@H](CCCCN)NC(=O)[C@H](CCC(=O)O)NC(=O)[C@H](Cc1c[nH]cn1)NC(=O)[C@H](COP(=O)(O)O)NC(=O)[C@@H](N)CC(=O)O)C(=O)N[C@@H](Cc1ccc(O)cc1)C(=O)N[C@@H](CC(=O)O)C(=O)N[C@@H](CC(N)=O)C(=O)O` [Hst1] (H-D[pS]HEKRHHGYRRKFHEKHHSHREFPFYGDYGSNYLYDN-OH; N-terminus and C-terminus assumed) the “% Rmax” value [1] was 38%, the Kd [1] was 2400 nM and the “% Rmax” value ([1]; listed as Hst1(1-38)) was “(% Rmax = 23%)”. The “effect of TMEM97 mutations on Hst1 binding” value [2] was “did not affect”, the ΔS [3] was 11.6±3.4 cal/mol K and the Kd ([3]; 25° C.) was 890 ± 200 nM. For the same compound, the disordered regions ([4]; CD in solution) was “over 50%”, the Helix [4, 8] was 0.02 and the Strand [4, 8] was 0.29. For the same compound, the Turns [4, 8] was 0.15, the Unordered [4, 8] was 0.54 and the “HMG-CoA reductase gene expression” value [5] was “reducing HMG-CoA reductase gene expression”. The NPC1 gene expression [5] was “increasing NPC1 gene expression”, the “LAMP1 lysosomal marker accumulation” value [6] was “normalized” and the “cholesterol accumulation (Filipin stained cells)” value [6] was “reduction in cholesterol accumulation”. The “ceramides (Cer NS, HexCer NS, SM)” value ([7]; 7-week-old NPC mouse model) was “significantly increasing”, the “gangliosides (GM3, GM2 and GM1)” value ([7]; 7-week-old NPC mouse model) was “significantly increasing” and the “phosphatidylinositol 4,5-bisphosphate (PIP2; 20:4/18:0) levels” value ([7]; NPC1−/− mouse, 9-week-old) was “significantly decrease”.
